Test results taken from PubChem BioAssay AID1963986 (Molecular Pharmacology Branch, DTP, NCI, 2024).

Test system: 171881-019-R-J1-PDC tumor spheroid viability
Experiment: Anticancer human tumor 171881-019-R-J1-PDC patient-derived invasive breast carcinoma cell line growth inhibition [PI3K]
Conditions: spheroids with HUVEC and MSC; for IC50: curve of first compound; for viability, T/C: stronger effect = lower value
How it was run: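 Tumor cells grown as multi-cell spheroids with HUVEC endothelial cells and MSC fibroblast-like stroma were treated with targeted agents combined with inavolisib, alpelisib, duvelisib or copanlisib. Doses fell in half-log steps from near clinical Cmax, else from 10 microM. Viability was measured.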
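Note: spheroids exposed to compound for 7 days before viability read.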
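Throughout, for viability, T/C: 100% = DMSO vehicle-treated spheroids.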

IC50 (second compound 0.0316 µM): 628 nM | IC50 (second compound 0.1 µM): 664 nM | IC50 (second compound 0.316 µM): 547 nM | IC50 (second compound 1 µM): 423 nM | IC50 (second compound 3.16 µM): 143 nM | IC50 (second compound 10 µM): < 9.49 nM
Structure (SMILES): Cn1cnc2c(F)c(Nc3ccc(Br)cc3Cl)c(C(=O)NOCCO)cc21 + CC(Nc1ncnc2nc[nH]c12)c1cc2cccc(Cl)c2c(=O)n1-c1ccccc1
viability, T/C (second compound 0.0316 µM, first compound 0.00949 µM): 93.5% | viability, T/C (second compound 0.0316 µM, first compound 0.03 µM): 84% | viability, T/C (second compound 0.0316 µM, first compound 0.0949 µM): 89.2% | viability, T/C (second compound 0.0316 µM, first compound 0.3 µM): 63.5% | viability, T/C (second compound 0.0316 µM, first compound 0.949 µM): 42.2% | viability, T/C (second compound 0.0316 µM, first compound 3 µM): 19.5% | viability, T/C (second compound 0.1 µM, first compound 0.00949 µM): 87.3% | viability, T/C (second compound 0.1 µM, first compound 0.03 µM): 84.7% | viability, T/C (second compound 0.1 µM, first compound 0.0949 µM): 75% | viability, T/C (second compound 0.1 µM, first compound 0.3 µM): 70.8% | viability, T/C (second compound 0.1 µM, first compound 0.949 µM): 40.7% | viability, T/C (second compound 0.1 µM, first compound 3 µM): 18.3% | viability, T/C (second compound 0.316 µM, first compound 0.00949 µM): 96.6% | viability, T/C (second compound 0.316 µM, first compound 0.03 µM): 91% | viability, T/C (second compound 0.316 µM, first compound 0.0949 µM): 77.2% | viability, T/C (second compound 0.316 µM, first compound 0.3 µM): 63.2% | viability, T/C (second compound 0.316 µM, first compound 0.949 µM): 38.6% | viability, T/C (second compound 0.316 µM, first compound 3 µM): 17.5% | viability, T/C (second compound 1 µM, first compound 0.00949 µM): 88.9% | viability, T/C (second compound 1 µM, first compound 0.03 µM): 74.4% | viability, T/C (second compound 1 µM, first compound 0.0949 µM): 71.8% | viability, T/C (second compound 1 µM, first compound 0.3 µM): 57.9% | viability, T/C (second compound 1 µM, first compound 0.949 µM): 34.6% | viability, T/C (second compound 1 µM, first compound 3 µM): 15.4% | viability, T/C (second compound 3.16 µM, first compound 0.00949 µM): 74.4% | viability, T/C (second compound 3.16 µM, first compound 0.03 µM): 65.3% | viability, T/C (second compound 3.16 µM, first compound 0.0949 µM): 55.9% | viability, T/C (second compound 3.16 µM, first compound 0.3 µM): 40.5% | viability, T/C (second compound 3.16 µM, first compound 0.949 µM): 25.8% | viability, T/C (second compound 3.16 µM, first compound 3 µM): 9.87% | viability, T/C (second compound 10 µM, first compound 0.00949 µM): 46.2% | viability, T/C (second compound 10 µM, first compound 0.03 µM): 44.2% | viability, T/C (second compound 10 µM, first compound 0.0949 µM): 37.8% | viability, T/C (second compound 10 µM, first compound 0.3 µM): 31.2% | viability, T/C (second compound 10 µM, first compound 0.949 µM): 14.9% | viability, T/C (second compound 10 µM, first compound 3 µM): 4.91%
